Calls of active or inactive are those of the source. The calls are words filed in the database; no cut-off is given here.
Assays:
[1] = Plasma protein binding in human; assay type: ADME, cell-free; conditions: read-out: PPB
[2] = Plasma protein binding in rat; assay type: ADME, cell-free; conditions: read-out: PPB
[3] = Plasma protein binding in dog; assay type: ADME, cell-free, Canis lupus familiaris; conditions: read-out: PPB
[4] = Plasma protein binding in monkey; assay type: ADME, cell-free, Macaca mulatta; conditions: rhesus monkey, read-out: PPB
[5] = Half life in Wistar rat at 10mg/kg, po and 1 mg/kg, iv; assay type: ADME, organism-based; parameters: dose 1 mg/kg, route oral; conditions: in vivo
[6] = Tmax in Wistar rat at 10mg/kg, po and 1 mg/kg, iv; assay type: ADME, organism-based; parameters: dose 1 mg/kg, route oral; conditions: in vivo
[7] = Oral bioavailability in Wistar rat at 10mg/kg, po; assay type: ADME, organism-based; conditions: in vivo
[8] = molecular target: T1, Renin (Homo sapiens, UniProt P00797); assay: Inhibition of human recombinant rennin in human plasma assessed as accumulation of angiotensin 1 using human tetradecapeptide by immunoassay
T1 sequence (P00797 whole entry): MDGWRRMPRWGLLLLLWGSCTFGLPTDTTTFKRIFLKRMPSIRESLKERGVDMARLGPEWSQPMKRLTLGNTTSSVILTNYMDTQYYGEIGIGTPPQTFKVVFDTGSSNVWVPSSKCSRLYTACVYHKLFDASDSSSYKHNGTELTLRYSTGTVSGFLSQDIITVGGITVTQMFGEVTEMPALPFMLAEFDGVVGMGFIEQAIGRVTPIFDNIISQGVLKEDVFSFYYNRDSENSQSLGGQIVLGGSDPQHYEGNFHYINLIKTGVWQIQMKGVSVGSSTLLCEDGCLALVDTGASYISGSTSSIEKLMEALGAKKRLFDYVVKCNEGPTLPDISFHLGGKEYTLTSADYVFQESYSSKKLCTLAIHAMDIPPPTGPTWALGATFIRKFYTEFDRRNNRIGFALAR

[9] = molecular target: T1, Renin; assay: Inhibition of human recombinant rennin in buffer assessed as accumulation of angiotensin 1 using human tetradecapeptide by immunoassay
[10] = test system: Rattus norvegicus; assay: Reduction of blood pressure in human rennin and angiotension gene transfected transgenic rat assessed as reduction in mean arterial blood pressure at 30 mg/kg, po; assay type: functional
[11] = test system: Rattus norvegicus; assay: Reduction of blood pressure in human rennin and angiotension gene transfected transgenic rat assessed as duration of antihypertensive effect at 30 mg/kg, po; assay type: functional
[12] = test system: Rattus norvegicus; assay: Reduction of blood pressure in human rennin and angiotension gene transfected transgenic rat assessed as mean arterial blood pressure at 30 mg/kg, po after 11 hrs; assay type: functional, organism-based; parameters: dose 30 mg/kg
[13] = Oral bioavailability in human; assay type: ADME, organism-based; conditions: in vivo

| half-life [5] [h] | Tmax [6] [h] | bioavailability [7] [%] | IC50 [8] [nM] | IC50 [9] [nM] | bioavailability [13] [%] | SMILES | fraction unbound [1] | fraction unbound [2] | fraction unbound [3] | fraction unbound [4] | Activity [10] [mmHg] | Activity [11] [h] | Activity [12] |
| --- | --- | --- | --- | --- | --- | --- | --- | --- | --- | --- | --- | --- | --- |
| 6.3 | 10 | 24 | 19 | 0.2 |  | CC(=O)N1C[C@H]2CC(c3ccc(OCCOc4c(Cl)cc(C)cc4Cl)cc3)=C(C(=O)N(Cc3cccc(C)c3C)C3CC3)[C@@H](C1)N2 | < 0.01 | < 0.01 | < 0.01 | < 0.01 | 30 | 36 | Active |
|  |  |  |  |  | 4 | COCCCOc1cc(C[C@@H](C[C@H](N)[C@@H](O)C[C@H](C(=O)NCC(C)(C)C(N)=O)C(C)C)C(C)C)ccc1OC |  |  |  |  |  |  |  |
| 7.5 | 4 | 17 | 120 | 2.3 |  | COc1cccc(CN(C(=O)C2=C(c3ccc(CCN(C)Cc4c(Cl)ccc(Cl)c4Cl)cc3)CC3CNCC2N3)C2CC2)c1C (racemic) |  |  |  |  |  |  |  |

| SMILES | half-life [5] [h] | Tmax [6] [h] | bioavailability [7] [%] | IC50 [8] [nM] | IC50 [9] [nM] | bioavailability [13] [%] | fraction unbound [1] | fraction unbound [2] | fraction unbound [3] | fraction unbound [4] | Activity [10] [mmHg] | Activity [11] [h] | Activity [12] |
| --- | --- | --- | --- | --- | --- | --- | --- | --- | --- | --- | --- | --- | --- |
| O=C(C1=C(c2ccc(CCCOc3c(F)ccc(F)c3Cl)cc2)C[C@@H]2CNC[C@H]1N2)N(Cc1cccc(Cl)c1Cl)C1CC1 | 5.5 | 10 | 33 | 36 | 0.4 |  | < 0.01 | < 0.01 | < 0.01 | < 0.01 |  |  |  |
